Test results taken from paper doi:10.1101/2021.06.06.447270v1 (biorxiv, 2021).

Molecular target: hCD36ecto (CD36ecto; human CD36 ectodomain) (Homo sapiens, UniProt P16671)
Assay: isothermal titration calorimetry
Format: binding

Chain of hCD36ecto (CD36ecto; human CD36 ectodomain) (P16671 30-439 limits assumed): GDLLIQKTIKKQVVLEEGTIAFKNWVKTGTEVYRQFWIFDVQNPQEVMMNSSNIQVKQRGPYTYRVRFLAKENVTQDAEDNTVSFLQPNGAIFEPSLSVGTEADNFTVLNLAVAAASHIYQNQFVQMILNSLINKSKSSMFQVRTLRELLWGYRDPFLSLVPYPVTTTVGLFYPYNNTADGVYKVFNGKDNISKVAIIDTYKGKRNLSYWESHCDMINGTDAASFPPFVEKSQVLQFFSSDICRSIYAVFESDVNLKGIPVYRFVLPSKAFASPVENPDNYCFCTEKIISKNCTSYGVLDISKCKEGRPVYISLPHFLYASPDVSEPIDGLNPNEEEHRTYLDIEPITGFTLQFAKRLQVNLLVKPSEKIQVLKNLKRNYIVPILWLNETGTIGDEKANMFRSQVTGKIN

Kd: 1260 ± 240 nM
Compound: C=CC1=C(C)C2=Cc3c(C=C)c(C)c4[n]3[Fe]([Cl])[n]3c(c(C)c(CCC(=O)O)c3=CC3=NC(=C4)C(C)=C3CCC(=O)O)=CC1=N2 [hemin]
